“Also recorded” adds a separate entry of the source. Where two headings read alike, the source gives them in different places.

Here are results for six substances from US8653027B2, “Method of treatment of type-1 diabetes with humanin analogues” (The Regents of the University of California, priority 2007, dated 2014).

One data set deals with IGFBP-3 deficient MEFs. Description: Apoptosis ELISA in IGFBP-3 deficient mouse embryonic fibroblasts. In kind it is cell-based. Particulars: 100 nM peptide, 24 hours. The procedure: (§1) Mouse embryonic fibroblasts (MEFs) derived from normal (wild-type) and IGFBP3 deficient mice were used to test the effects of humanin and its analogues on survival. Apoptosis was measured after 24 hours with 100 nM of each peptide by ELISA. […] The increased potency seems to result from the lack of IGFBP-3 binding, because there is no additional advantage when IGFBP-3 is not present. Thus, F6A-HNG is distinct from previously described humanin derivatives.
(In general: An ELISA detects its analyte on a solid surface through an enzyme-linked reagent.)

A further data set deals with normal (wild-type) MEFs. The data set can be described thus: Apoptosis ELISA in normal (wild-type) mouse embryonic fibroblasts. Conditions: 100 nM peptide, 24 hours. In kind it is cell-based. As to the method: as §1
The test system of a further data set is NIT cells. The data set can be described thus: Survival and STAT-3/ERK activation in NIT cells, potency compared to humanin. In kind it is cell-based.
For the next data set, the target named is IGFBP-3 (Homo sapiens, UniProt P17936). Description: IGFBP-3 binding.
The next data set deals with NONcNZO10/LtJ mice. Description: IP glucose tolerance test in NONcNZO10/LtJ mice (obesity-induced type 2 diabetes model). In kind it is in vivo, mouse. Particulars: 25 μg IP twice a day for 14 days. The procedure:
NONcNZO10/LtJ mice are a model for obesity-induced type 2 diabetes. NONcNZO10/LtJ mice were injected IP with 25 μg F6A-HNG twice a day for 14 days. Mice were subjected to 6 hour fast followed by an IP GTT on D15. Baseline glucose measurement was taken and the mice were injected IP with 0.5 mg/g glucose. Glucose was sampled at 0 and 90, 120 min.

The next data set concerns NIT-1 cells. Description: Caspase 3/7 fluorometric assay (ApoONE) of cytokine-induced apoptosis in NIT-1 cells. The format is cell-based, Mouse. The procedure: Apoptosis is the main form of pancreatic beta cell death in animal models of type 1 diabetes mellitus. […] In this study, we used a caspase 3/7 specific fluorometric assay (ApoONE, Promega) to measure the degree of apoptosis induction by cytokines in NIT-1 cells.
Cells were cultured as described above. For the experiment, NIT-1 cells were seeded in 96-well plates at a density of 0.128×10^5 cells per well. After about 24 hours, medium was changed to FCS-free medium and the cells were exposed to TNF-α (5 ng/mL) or were kept untreated as controls. As expected, TNF-α induced apoptosis in NIT-1 cells at 48 hours.
TNF-α increased apoptosis approximately 40% compared to serum-deprived cells.

Another data set has as its system ERK1/2. The data set can be described thus: ERK1/2 phosphorylation in NIT-1 cells by immunoblotting. In kind it is cell-based, Mouse. Particulars: 100 nM HN, serum free media. As to the method:
(§2) To investigate the mechanism of Humanin-induced beta cell survival, we treated NIT-1 cells with 100 nM HN in serum free media. Cell lysates were harvested and phosphorylated ERK1/2 and STAT3 were assessed by immunoblotting.
(§3) Phosphorylation of ERK (activation) occurred 15 minutes after adding HN. Phosphorylation of STAT3 (activation) was a later event, 4 hours after addition of HN (FIG. 2).
A general note: A western blot detects proteins with antibodies after separation by electrophoresis.

Data set [1] has as its system NOD mice. Description: Insulitis scoring of pancreatic sections from NOD mice. In kind it is in vivo, mouse. Particulars: humanin-treated NOD mice vs vehicle-treated control. An excerpt:
To test whether administration of humanin regulates the extent of lymphocyte infiltration into pancreatic islets, fixed and embedded pancreatic tissues were examined. Pancreata from humanin-treated NOD mice were formalin fixed, stained with hematoxylin/eosin, and assessed in a blinded fashion to determine the degree of lymphocyte infiltration. Results were compared to tissues from saline-injected control mice. Three or four randomly selected and nonadjacent sections from each pancreas were scored independently by two blind observers and evaluated for mononuclear cell infiltration. Severity of infiltration was classified based on the degree of lymphocytic infiltration as follows: G0—normal (no infiltration); G1—peri-insulitis (mononuclear cells surrounding islets and ducts but no infiltration of the islet architecture); G2—moderate insulitis (mononuclear cells infiltrating less than 50% of the islet architecture); and G3—severe insulitis (more than 50% of the islet tissue infiltrated by lymphocytes, accompanied by a reduction in insulin staining). See Pastorale et al. (2002) Exp Biol Med (Maywood) 227:282-89.

The subject of another data set is NIT-1 insulinoma cells. The data set can be described thus: Serum starvation-induced apoptosis of NIT-1 cells, histone-associated DNA ELISA. Conditions: NIT-1 cells serum starved 24 hours, humanin 1 to 10000 nM. In kind it is cell-based, Mouse. As to the method: Secondary to the pro-survival effect of humanin observed in neuronal cells, we hypothesized that humanin could be a survival factor for neuroendocrine beta cells. Mouse NIT-1 insulinoma cells were serum starved for 24 hours as control, and compared to cultures co-incubated with increasing doses of humanin ranging from 1 to 10000 nM.
Conditions were as follows: NIT-1 cells were purchased from ATCC and maintained in F-12 Ham's medium (F12-K) supplemented with 10% FBS (fetal bovine serum), 10% L-glutamine, Penicillin (100 U/ml) and Streptomycin (100 μg/ml), in 25 cm^2 tissue culture flasks (Greiner, Frickenhausen, Germany). NIT-1 cells were maintained at 37 C in a 5% CO2/95% air mixture and were passaged twice weekly by trypsination (Invitrogen life technologies, Karlsruhe, Germany). For the experiment, NIT-1 cells were seeded in 96-well plates at a density of 0.128×10^5 cells per well. After about 24 hours, medium was changed to FCS-free medium.
Apoptosis was quantified by a specific histone-associated DNA ELISA.

The test system of a further data set is STAT3. The data set can be described thus: STAT3 phosphorylation in NIT-1 cells by immunoblotting. The format is cell-based, Mouse. Conditions: 100 nM HN, serum free media. As to the method: as §2, §3
The subject of data set [2] is NOD mice. The format is in vivo. Conditions: for glucose tolerance (response to glucose challenge): NOD mice, 0.7 mg/kg/d IP for 6 weeks, fasted overnight, vs saline. The procedure: As proof of principle, we examined whether a 6-week course of daily IP injected humanin (0.7 mg/kg/d) to euglycemic 9-week-old NOD mice (Taconic) could improve glucose tolerance as compared to saline-injected control mice (n=12/group). […] At the conclusion of the treatment, mice were fasted overnight and divided into groups that were subjected to IP insulin and glucose tolerance testing (n=6/group). […] We additionally harvested serum, pancreata, and various other organs from these mice for histological studies and analysis of serum humanin, IGFBP-3, and other IGF-related peptides.

In data set [3] the test system is NOD mice. Description: Onset of diabetes in NOD mice over 20-week treatment. The format is in vivo, mouse. Conditions: female NOD mice, 0.7 mg/kg/d IP daily from 5 weeks of age, vs saline, 0.7 mg/kg/day. The procedure:
Four-week-old female NOD mice were treated with humanin. Before treatment, mice were tested two to three times per week for nonfasting blood glucose levels. Mice with blood glucose levels higher than 300 mg/dL on three consecutive measurements were considered diabetic. Beginning at 5 weeks of age, two groups of NOD mice (n=25 each) were administered (0.7 mg/kg/d) synthetic humanin by IP injection daily (Bachem). NOD mice injected with the same volume of saline served as negative controls.

Chain of IGFBP-3 (P17936 28-291, species assumed): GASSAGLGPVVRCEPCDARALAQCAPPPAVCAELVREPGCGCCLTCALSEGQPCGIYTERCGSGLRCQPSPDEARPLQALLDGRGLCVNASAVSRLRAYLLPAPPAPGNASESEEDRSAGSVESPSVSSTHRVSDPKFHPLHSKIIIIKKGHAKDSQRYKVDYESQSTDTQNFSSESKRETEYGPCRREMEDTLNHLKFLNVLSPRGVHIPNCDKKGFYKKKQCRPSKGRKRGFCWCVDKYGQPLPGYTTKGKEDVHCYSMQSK

For “F6A-HNG: humanin analogue, SEQ ID NO:16 MAPRGASCLLLLTGEIDLPVKRRA (synthetic humanin (HN) analogue F6A-HNG)”, the “potency on survival (apoptosis) in IGFBP-3 deficient MEFs” value with IGFBP-3 deficient MEFs is “equal potency”. In addition, the “potency on survival (apoptosis) in normal MEFs” value in the data set with normal (wild-type) MEFs is “more potent”. For the same substance, in the data set on NIT cells, the “potency in promoting survival and activating STAT-3 and ERK, compared to humanin” value (shortened to “potency … compared to humanin”) is “even greater potency”. Also, the IGFBP-3 binding entry with IGFBP-3 is recorded as “does not bind IGFBP-3; also recorded: devoid of IGFBP-3 binding activity”. Further, the “glucose levels at 90 and 120 min” value in the data set on NONcNZO10/LtJ mice (IP GTT on D15) is on record as “significantly lower”. The glucose tolerance result in the data set on NONcNZO10/LtJ mice (IP GTT on D15 after 6 hour fast, 0.5 mg/g glucose) is recorded as “significantly better glucose tolerance”.
For “Z-HN: humanin analogue, SEQ ID NO:18 MAKRGLNCLPHQVSEIDLSVQKRI (synthetic humanin (HN) analogue Z-HN)”, in the data set with NIT cells, the “potency … compared to humanin” value is “two-fold greater potency than humanin”.
For the substance TNF-α [reference compound], the “increase of apoptosis compared to serum-deprived cells” value in the data set with NIT-1 cells (TNF-α 5 ng/mL, 48 hours) was “approximately 40%”.
On to “F6AK21A-HNG: humanin analogue, SEQ ID NO:17 MAPRGASCLLLLTGEIDLPVARRA (synthetic humanin (HN) analogue F6AK21A-HNG)”, for which, in the data set on NIT cells, the “potency … compared to humanin” value is listed as “even greater potency”.
With “HNG: humanin analogue, SEQ ID NO:2 MAPRGFSCLLLLTGEIDLPVKRRA (synthetic humanin (HN) analogue S14G-HN (HNG))”, the “potency on survival (apoptosis) in IGFBP-3 deficient MEFs” value in the data set on IGFBP-3 deficient MEFs is given as “equal potency”.
On to “Humanin: 24 amino acid peptide, SEQ ID NO:1 MAPRGFSCLLLLTSEIDLPVKRRA”, for which the ERK activation result in the data set with ERK1/2 was “activates ERK”. In addition, the “time of phosphorylation of ERK (activation) after adding HN” value in the data set with ERK1/2 turned out to be 15 min. Further, in the data set on NOD mice [1], the “total number of islets infiltrated by lymphocytes” value was “significantly decreased”. For the same substance, the “severity of lymphocyte infiltration (insulitis)” value with NOD mice [1] (grades G0-G3) is on record as “significantly decreased; also recorded: decreased insulitis severity”. Besides, in the data set with NIT-1 cells (FCS-free medium, humanin 10 to 1000 nM), the “protection from serum starvation induced apoptosis (caspase 3/7 assay)” value was “protects beta cells from cytokine-induced apoptosis and serum starvation induced apoptosis in a dose-dependent manner”. The “protection from TNF-α induced apoptosis” value in the data set on NIT-1 cells (TNF-α 5 ng/mL, 48 hours, humanin 10 to 1000 nM, caspase 3/7 assay) is given as “protected beta cells from TNF-α induced apoptosis in a dose dependent manner”. Further, the “protection from serum-starvation induced apoptosis” value in the data set with NIT-1 insulinoma cells was “potently protected beta cells from serum-starvation induced apoptosis in a dose dependent manner”; with NIT-1 insulinoma cells (listed as humanin), “reduced the level of apoptosis”. For the same substance, in the data set with STAT3, the STAT3 activation entry is “activates ERK and STAT3”. Further, the “time of phosphorylation of STAT3 (activation) after addition of HN” value in the data set on STAT3 turned out to be 4 h. Also, the results for the “glucose tolerance (response to glucose challenge)” value with NOD mice [2] and with NOD mice [2] (listed as humanin) were “improves glucose tolerance” and “non-diabetic response to glucose challenge”, respectively. The “tolerability of daily IP injections” value in the data set with NOD mice [2] (mouse, in vivo, ip, 0.7 mg/kg/day) is “tolerated well”. Further, the onset of diabetes result is “delays onset of diabetes” in the data set on NOD mice [3] and “significantly delayed the onset of diabetes” in the data set on NOD mice [3] (listed as humanin). For the same substance, in the data set with IGFBP-3, the IGFBP-3 binding entry is listed as “binds IGFBP-3”.
